Measurements published in patent publication US20260107927A1, “ZEBRAFISH ANIMAL MODEL FOR INFLAMMATORY DISEASES AND METHOD FOR SCREEING ANTI-INFLAMMATORY AGENTS USING SAME” (RAYDEL KOREA CO., LTD., priority 2022, published 2026).

Assays:
zebrafish embryos [1] = assay: CML microinjection into zebrafish embryos: survival rate and embryo development; assay type: in vivo, zebrafish (Danio rerio)
Experimental: The present inventors constructed a zebrafish embryonic animal model microinjected with CML to establish an acute cytokine storm induction system. After confirming under a microscope that the freshly spawned zebrafish embryos were 30 minutes post-fertilization (0.5 hour post fertilization (0.5 hpf)), the fertilized embryos that were dividing normally were selected. […] The tip of the needle was sharpened by cutting it diagonally using a sharp forcep, a hole was made, and 5 μL of injection cocktail solution was added to the microglass needle.
(§1) Eggs were densely packed and arranged at appropriate intervals on a 1% agarose gel with grooves of appropriate spacing to facilitate rapid microinjection. A microglass needle was attached to a microinjector (PV-830, World Precision Instruments, Sarasota, FL, USA), 5 μL of mineral oil was spread on a graduated hematocytometer, the needle was placed on top of it, and the contents were injected. The size of the bubble formed was measured and calibrated to the desired volume, after which it was injected into zebrafish embryos at the 2-cell and 4-cell stages.
At this time, in order to minimize errors in the microinjection process, microinjection was performed as much as possible into the yolk area. After microinjection, the embryos were separated from the agarose gel and placed in a Petri dish, which was then filled with 20 mL of egg water (0.02 mg/L methylene blue) and stored at 28° C.
To compare the survival rates of zebrafish embryos, the inventors prepared a non-injected group (No injection), a PBS-injected control group (PBS control), and a CML-injected group.

interleukin-6 (IL-6) = assay: Plasma interleukin-6 after CML with or without test substances; assay type: in vivo, zebrafish (Danio rerio); settings: FIG. 17
Experimental: (§2) Blood was collected from zebrafish in each group, plasma was isolated, and total cholesterol (TC) and triglyceride (TG) were analyzed. Blood was collected from zebrafish in each group, plasma was isolated, and serum amyloid A (SAA), a biomarker of hepatitis induction, interleukin-6 (IL-6), a factor that induces an acute cytokine storm in the liver, and tumor necrosis factor-α (TNF-α), an inflammatory cytokine involved in liver inflammation were analyzed.

zebrafish adults [2] = assay: Intraperitoneal CML plus test substances in zebrafish adults: recovery of swimming ability and survival; assay type: in vivo, zebrafish (Danio rerio); settings: for swimming ability compared with CML injected group / recovery of ability to swim compared with CML injected group: co-injected with CML; for swimming ability compared with CML injected group: 30 minutes after injection; for survival rate of zebrafish adults: combined treatment with CML, FIG. 11
Source text: The cytokine storm suppression ability of the test substances was compared by confirming the swimming ability of zebrafish of the groups injected with PBS, CML, CML and Remsima (Infliximab), and CML and Actemra (Tocilizumab) via intraperitoneal administration (FIG. 9).
The effects of the test substances in the CML and Remsima (Infliximab) injected group and the CML and Actemra (Tocilizumab) injected group were compared.

zebrafish adults [3] = assay: Plasma total cholesterol (TC) and triglyceride (TG) after CML with or without test substances; assay type: in vivo, zebrafish (Danio rerio); settings: for plasma triglyceride (TG) concentration: FIG. 15
Experimental: Zebrafish adults were treated with CML at a concentration of 3 mM, and Actemra (Tocilizumab) and Remsima (Infliximab) were simultaneously treated to confirm the effects of the test substances on reducing total cholesterol (TC) and triglyceride (TG).
Blood was collected from zebrafish in each group, plasma was isolated, and total cholesterol (TC) and triglyceride (TG) were analyzed.

zebrafish adults [4] = assay: Intraperitoneal CML injection into zebrafish adults: swimming ability, acute paralysis, survival
Experimental: Movements of 10 zebrafish adults (16±3 weeks old) injected intraperitoneally with CML (250 μg, 10 μL) solution (final conc. of CML: 3 mM) and 10 zebrafish adults injected with PBS were observed 30 minutes and 1 hour after injection.

serum amyloid A (SAA) = assay: Plasma serum amyloid A after CML with or without test substances; assay type: in vivo, zebrafish (Danio rerio); settings: FIG. 16
Experimental: as §2

[5] = tested on: liver tissue of zebrafish adults; assay: Hematoxylin-eosin (H&E) staining of liver tissue: inflammatory cell infiltration; assay type: in vivo, zebrafish (Danio rerio)
Experimental: To compare the degree of acute cytokine storm induction by CML and alleviation, hematoxylin-eosin (H&E) staining was performed on zebrafish adults of the PBS-injected and CML-injected groups, and the degree of inflammatory cell infiltration in the liver tissue was investigated.
That is, the inhibitory effect of the IL-6 inhibitor Actemra (Tocilizumab) on inflammation caused by CML-induced glycation toxicity was greater than that of the TNF-α inhibitor Remsima (Infliximab).

[6] = tested on: tumor necrosis factor-α (TNF-α); assay: Plasma tumor necrosis factor-α after CML with or without test substances; assay type: in vivo, zebrafish (Danio rerio); settings: FIG. 18
Experimental: as §2

zebrafish embryos [7] = assay: Combined microinjection of CML with test substances into zebrafish embryos: survival rate and development; assay type: in vivo, zebrafish (Danio rerio); settings: for survival rate of embryos: co-injected with 500 ng CML, 43 ng Remsima or 44 ng Actemra, after 24 hours, FIG. 3; for rate of development: co-injected with CML, 25 hours post-injection; for rate of development / developmental defects: FIG. 4; for developmental defects: microinjected mixture with CML
Experimental: The present inventors constructed a zebrafish embryonic animal model microinjected with CML to establish an acute cytokine storm induction system. After confirming under a microscope that the freshly spawned zebrafish embryos were 30 minutes post-fertilization (0.5 hour post fertilization (0.5 hpf)), the fertilized embryos that were dividing normally were selected. A capillary glass tube (TW100F-4, World Precision Instruments, Sarasota, FL, USA) was inserted into a micro-glass needle maker (PC-10, Narishege, Tokyo, Japan), and the coil was adjusted to be in the center of the capillary glass tube, and then a needle was made at a temperature of 71.3° C. The tip of the needle was sharpened by cutting it diagonally using a sharp forcep, a hole was made, and 5 μL of injection cocktail solution was added to the microglass needle.
as §1
At this time, in order to minimize errors in the microinjection process, microinjection was performed as much as possible into the yolk area. After microinjection, the embryos were separated from the agarose gel and placed in a Petri dish, which was then filled with 20 mL of egg water (0.02 mg/L methylene blue) and stored at 28° C. All injection processes were performed under a stereomicroscope (SMZ-168, Motic, Hong Kong) at 20× magnification.

[8] = CML-injected embryos, about 25 hours post-fertilization
[9] = treated simultaneously with CML
[10] = intraperitoneal, 1 hour after injection, FIG. 9
[11] = treated simultaneously with CML, FIGS. 12 and 13

| Molecule | IL-6 (interleukin-6 (IL-6); [9]) [pg/mL] | swimming ability compared with CML injected group (zebrafish adults [2]; intraperitoneal, FIG. 9) | recovery of ability to swim compared with CML injected group (zebrafish adults [2]; [10]) | survival rate of zebrafish adults (zebrafish adults [2]) | serum amyloid A (SAA) (serum amyloid A (SAA); [9]) [ng/mL] | survival rate of embryos (zebrafish embryos [7]) [%] | rate of development (zebrafish embryos [7]) | developmental defects (zebrafish embryos [7]) | inflammatory cell infiltration in liver tissue [5, 11] | TNF-α [6, 9] [ng/mL] | also measured |
| --- | --- | --- | --- | --- | --- | --- | --- | --- | --- | --- | --- |
| N[C@@H](CCCCNCC(=O)O)C(=O)O [CML, N-ε-carboxymethyllysine] |  |  |  |  |  |  |  |  |  |  | survival rate of zebrafish embryos (zebrafish embryos [1]; 500 ng CML microinjected (20 nL, 25 mg/mL in PBS), 24 hours, FIG. 1): 23.5%; developmental stage of embryos (zebrafish embryos [1]; 25 hours after CML injection, FIG. 2): 21-somite stage; developmental morphology (zebrafish embryos [1]; CML-injected embryos): developmental malformations were present in the head and tail; developmental state, equivalent time after fertilization (zebrafish embryos [1]; [8]): about 19.5 hours after fertilization; number of somites (zebrafish embryos [1]; [8]): about 21; IL-6 (interleukin-6 (IL-6); CML alone): 76.4 ± 6.1 pg/mL; number of zebrafish showing recovery of swimming ability (zebrafish adults [2]; CML group, 3 mM intraperitoneal, 1 hour after injection, FIG. 9): 2 to 3; plasma total cholesterol (TC) concentration (zebrafish adults [3]; CML alone, 3 mM, FIG. 14): highest; plasma triglyceride (TG) concentration (zebrafish adults [3]; CML alone, 3 mM): highest; zebrafish that recovered the ability to swim (zebrafish adults [4]; CML 250 μg intraperitoneal (final 3 mM), 1 hour after injection, FIGS. 5 and 6): 25%; movement / swimming ability (zebrafish adults [4]; CML 250 μg, 10 μL intraperitoneal (final 3 mM), first 30 minutes after injection): immobilized and lying on the bottom; survival rate of zebrafish adults (zebrafish adults [4]; CML alone, intraperitoneal, after 60 minutes, FIG. 8): less than 49%; serum amyloid A (SAA) (serum amyloid A (SAA); CML alone): 59.7 ± 1.6 ng/mL; inflammatory cell infiltration in liver tissue ([5]; CML alone, FIGS. 12 and 13): approximately 23%; inflammatory cell infiltration in liver tissue ([5]; CML only injection group, FIG. 8): 27%; TNF-α ([6]; CML alone): 43.5 ± 0.4 ng/mL |
| Actemra: biopharmaceutical, an IL-6 inhibitor, used as treatment agent for rheumatoid arthritis | 51.8 ± 1.8 | More zebrafish | more zebrafish had regained the ability to swim | approximately 97% | 38.8 ± 2.0 | 53.1 | almost the same rate of development as embryos injected with PBS | no developmental defects were observed | 15-17% | 6.8 ± 2.6 | recovery of swimming ability and survival rate compared with 43 μg Remsima (zebrafish adults [2]; 44 μg Actemra with CML, intraperitoneal, FIGS. 10 and 11): recovery of swimming ability was better and survival rate was increased; plasma triglyceride (TG) concentration (zebrafish adults [3]; treated simultaneously with 3 mM CML): lowest |
| Remsima: biopharmaceutical, a TNF-α inhibitor, used as treatment agent for rheumatoid arthritis | 62.8 ± 3.1 | More zebrafish | more zebrafish had regained the ability to swim | 63% | 41.2 ± 5.3 | 38.4 | almost the same rate of development as embryos injected with PBS | no developmental defects were observed | approximately 23% | 41.6 ± 5.8 |  |
